Legend:
[1] = system: IL-13 induced pSTAT6 in lung tissue; test: Murine model of IL-13 induced pSTAT6 induction in lung tissue; format: in vivo; conditions: mouse lung
Protocol: Il-13 is an important cytokine underlying the pathophysiology of asthma (Kudlacz et al. Eur. J. Pharmacol, 2008, 582, 154-161). IL-13 binds to cell surface receptors activating members of the Janus family of kinases (JAK) which then phosphorylate STAT6 and subsequently activates further transcription pathways. In the described model, a dose of IL-13 was delivered locally into the lungs of mice to induce the phosphorylation of STAT6 (pSTAT6) which is then measured as the endpoint.
Adult balb/c mice from Harlan were used in the assay. On the day of study, animals were lightly anesthetized with isoflurane and administered either vehicle or test compound (0.5 mg/mL, 50 μL total volume over several breaths) via oral aspiration. Animals were placed in lateral recumbency post dose and monitored for full recovery from anesthesia before being returned to their home cage. Four hours later, animals were once again briefly anesthetized and challenged with either vehicle or IL-13 (0.03 μg total dose delivered, 50 μL total volume) via oral aspiration before being monitored for recovery from anesthesia and returned to their home cage. One hour after vehicle or IL-13 administration, lungs were collected for both pSTAT6 detection using an anti-pSTAT6 ELISA (rabbit mAb capture/coating antibody; mouse mAb detection/report antibody: anti-pSTAT6-pY641; secondary antibody: anti-mouse IgG-HRP) and analyzed for total drug concentration as described above in Assay 4.
Selected compounds of the invention were tested in the assay. Activity in the model is evidenced by a decrease in the level of pSTAT6 present in the lungs of treated animals at 5 hours compared to the vehicle treated, IL-13 challenged control animals. The difference between the control animals which were vehicle-treated, IL-13 challenged and the control animals which were vehicle-treated, vehicle challenged dictated the 0% and 100% inhibitory effect, respectively, in any given experiment.

[2] = Pharmacokinetics in plasma and lung in mouse; format: in vivo; conditions: oral aspiration 0.2 mg/mL 50 uL, lung AUC (μg hr/g) / plasma AUC (μg hr/mL)
Protocol: Plasma and lung levels of test compounds and ratios thereof were determined in the following manner. BALB/c mice from Charles River Laboratories were used in the assay. Test compounds were individually formulated in 20% propylene glycol in pH 4 citrate buffer at a concentration of 0.2 mg/mL and 50 uL of the dosing solution was introduced into the trachea of a mouse by oral aspiration. At various time points (typically 0.167, 2, 6, 24 hr) post dosing, blood samples were removed via cardiac puncture and intact lungs were excised from the mice. Blood samples were centrifuged (Eppendorf centrifuge, 5804R) for 4 minutes at approximately 12,000 rpm at 4° C. to collect plasma. Lungs were padded dry, weighed, and homogenized at a dilution of 1:3 in sterile water. Plasma and lung levels of test compound were determined by LC-MS analysis against analytical standards constructed into a standard curve in the test matrix. A lung to plasma ratio was determined as the ratio of the lung AUC in μg hr/g to the plasma AUC in μg hr/mL, where AUC is conventionally defined as the area under the curve of test compound concentration vs. time.

[3] = system: IL-13 induced STAT6 phosphorylation in BEAS-2B human lung epithelial cells; test: AlphaScreen cellular potency assay, IL-13 induced STAT6 phosphorylation in BEAS-2B cells; format: cell-based; conditions: IL-13 induced STAT6 phosphorylation, BEAS-2B cells; for IC50: Homo sapiens, read-out: BEAS-2B pIC50 (converted)
JAK2 = JAK2 (Homo sapiens (Human), UniProt O60674)
Sequence of JAK2 (O60674 whole entry): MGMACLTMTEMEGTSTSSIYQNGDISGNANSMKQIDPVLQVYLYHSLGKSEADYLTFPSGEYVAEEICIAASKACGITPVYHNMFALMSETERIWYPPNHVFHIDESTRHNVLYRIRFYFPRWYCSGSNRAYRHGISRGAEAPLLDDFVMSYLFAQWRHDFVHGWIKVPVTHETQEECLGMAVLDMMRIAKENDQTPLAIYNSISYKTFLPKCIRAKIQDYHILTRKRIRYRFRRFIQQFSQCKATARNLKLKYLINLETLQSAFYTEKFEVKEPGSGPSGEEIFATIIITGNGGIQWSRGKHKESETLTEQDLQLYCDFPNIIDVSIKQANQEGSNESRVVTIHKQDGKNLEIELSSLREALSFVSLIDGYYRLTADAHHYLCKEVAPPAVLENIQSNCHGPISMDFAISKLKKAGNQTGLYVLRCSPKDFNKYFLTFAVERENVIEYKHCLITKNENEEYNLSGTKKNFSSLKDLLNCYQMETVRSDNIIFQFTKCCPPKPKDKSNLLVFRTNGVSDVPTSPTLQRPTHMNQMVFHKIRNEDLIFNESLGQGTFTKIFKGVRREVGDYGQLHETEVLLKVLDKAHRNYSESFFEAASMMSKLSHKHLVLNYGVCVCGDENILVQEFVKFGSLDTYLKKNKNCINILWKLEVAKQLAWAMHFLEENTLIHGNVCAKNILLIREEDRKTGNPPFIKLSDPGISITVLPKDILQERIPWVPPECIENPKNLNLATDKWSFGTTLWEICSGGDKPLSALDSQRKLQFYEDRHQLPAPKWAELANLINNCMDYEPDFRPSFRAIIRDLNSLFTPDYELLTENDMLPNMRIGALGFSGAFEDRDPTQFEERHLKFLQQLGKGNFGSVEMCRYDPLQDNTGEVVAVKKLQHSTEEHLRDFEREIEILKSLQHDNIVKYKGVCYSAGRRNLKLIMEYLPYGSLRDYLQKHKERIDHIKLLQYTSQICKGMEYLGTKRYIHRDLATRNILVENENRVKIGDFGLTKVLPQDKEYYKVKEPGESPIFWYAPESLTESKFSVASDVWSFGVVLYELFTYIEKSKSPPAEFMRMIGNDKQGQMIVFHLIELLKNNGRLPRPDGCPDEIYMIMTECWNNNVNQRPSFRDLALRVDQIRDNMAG

[4] = 0.5 mg/mL, 50 μL oral aspiration, IL-13 challenge 4 h after dosing, lungs collected 1 h later

Lung to Plasma ratio Assay 4 [2] | Structure (SMILES) | pSTAT6 inhibition Assay 5 [1, 4] | BEAS-2B pIC50 [3] | Ki (JAK2) [pM] | other results
 | CCc1cc(O)c(F)cc1-c1ccc2c(-c3nc4c([nH]3)CCN(CCNC3(C#N)CC3)C4)n[nH]c2c1 [Example 3-1] |  |  |  | pSTAT6 inhibition in the pharmacodynamic assay [1]: exceptions
 | CCc1cc(O)c(F)cc1-c1ccc2c(-c3nc4c([nH]3)CCN(C3CN(C5CCS(=O)(=O)C5)C3)C4)n[nH]c2c1 (stereo not shown) [Example 1-15] |  |  |  | pSTAT6 inhibition in the pharmacodynamic assay [1]: exceptions
B (B denotes a ratio between 50 and 100) | CCc1cc(O)c(F)cc1-c1ccc2c(-c3nc4c([nH]3)CCN(C3CN(CC5CC5)C3)C4)n[nH]c2c1 [Example 1-18] | C (C represents between 33% and 50% inhibition) |  |  | 
 | CCc1cc(O)c(F)cc1-c1ccc2c(-c3nc4c([nH]3)CCN(C3CCNC3)C4)n[nH]c2c1 (stereo not shown) [Example 9-1] |  | B (B represents a pIC50 value between 7.4 and 8 (IC50 between 40 nM and 10 nM)) | < 100 | 
 | CCc1cc(O)c(F)cc1-c1ccc2c(-c3nc4c([nH]3)CCN(C3CN(CCC#N)C3)C4)n[nH]c2c1 [Example 1-8] |  | A (A represents a pIC50 value ≥8 (IC50≤10 nM)) | < 100 | 
A (A denotes a ratio >100) | CCc1cc(O)c(F)cc1-c1ccc2c(-c3nc4c([nH]3)CCN(CCN(C)CC(C)C)C4)n[nH]c2c1 [Example 3-33] | C (C represents between 33% and 50% inhibition) |  |  | 
 | CCc1cc(O)c(F)cc1-c1ccc2c(-c3nc4c([nH]3)CCN(CCN3CCCC3)C4)n[nH]c2c1 [Example 16, 5-Ethyl-2-fluoro-4-(3-(5-(2-(pyrrolidin-1-yl)ethyl)-4,5,6,7-tetrahydro-1H-imidazo[4,5-c]pyridin-2-yl)-1H-indazol-6-yl)phenol] |  |  | < 100 | IC50 [3]: < 10000 pM
 | CCc1cc(O)c(F)cc1-c1ccc2c(-c3nc4c([nH]3)CCN(C3CN(CCOC)C3)C4)n[nH]c2c1 [Example 1-6] |  | A (A represents a pIC50 value ≥8 (IC50≤10 nM)) | < 100 | 
C (C denotes a ratio between 10 and 50) | CCc1cc(O)c(F)cc1-c1ccc2c(-c3nc4c([nH]3)CCN(C3CN(CC(C)C)C3)C4)n[nH]c2c1 [Example 1-11] | C (C represents between 33% and 50% inhibition) |  |  | 
 | CCc1cc(O)c(F)cc1-c1ccc2c(-c3nc4c([nH]3)CCN(C3CN(CC)C3)C4)n[nH]c2c1 [Example 1-3] |  | B (B represents a pIC50 value between 7.4 and 8 (IC50 between 40 nM and 10 nM)) | < 100 | 
B (B denotes a ratio between 50 and 100) | CCc1cc(O)c(F)cc1-c1ccc2c(-c3nc4c([nH]3)CCN(C3CN(CCCOC)C3)C4)n[nH]c2c1 [Example 1-7] | C (C represents between 33% and 50% inhibition) |  |  | 
 | CCc1cc(O)c(F)cc1-c1ccc2c(-c3nc4c([nH]3)CCN(C3CCNCC3)C4)n[nH]c2c1 [Example 2-3] |  | B (B represents a pIC50 value between 7.4 and 8 (IC50 between 40 nM and 10 nM)) | < 100 | 
 | CCc1cc(O)c(F)cc1-c1ccc2c(-c3nc4c([nH]3)CCN(C3CN(CCO)C3)C4)n[nH]c2c1 [Example 1-1] |  | B (B represents a pIC50 value between 7.4 and 8 (IC50 between 40 nM and 10 nM)) | < 100 | 
B (B denotes a ratio between 50 and 100) | CCc1cc(O)c(F)cc1-c1ccc2c(-c3nc4c([nH]3)CCN(C3CN(C(C)CC)C3)C4)n[nH]c2c1 (stereo not shown) [Example 4, 4-(3-(5-(1-(sec-butyl)azetidin-3-yl)-4,5,6,7-tetrahydro-1H-imidazo[4,5-c]pyridin-2-yl)-1H-indazol-6-yl)-5-ethyl-2-fluorophenol] |  |  |  | IC50 [3]: < 10000 pM; inhibition in vivo at 500 µg/mL ([1]; 0.5 mg/mL, 50 μL oral aspiration, IL-13 challenge 4 h after dosing, lungs collected 1 h later, read-out: pSTAT6 inhibition Assay 5): > 65%

Structure (SMILES) | Lung to Plasma ratio Assay 4 [2] | pSTAT6 inhibition Assay 5 [1, 4] | BEAS-2B pIC50 [3] | Ki (JAK2) [pM] | other results
CCc1cc(O)c(F)cc1-c1ccc2c(-c3nc4c([nH]3)CCN(CC3CNC3)C4)n[nH]c2c1 [Example 14-7] | A (A denotes a ratio >100) | B (B represents between 50% and 65% inhibition) | B (B represents a pIC50 value between 7.4 and 8 (IC50 between 40 nM and 10 nM)) | < 100 | 
